Test results published in patent US20160257697A1, “THIOPHENE-SUBSTITUTED TETRACYCLIC COMPOUNDS AND METHODS OFUSE THEREOF FOR THE TREATMENT OF VIRAL DISEASES” (priority 2013, published 2016).
Where two headings read alike, the source gives them in different places.

Experiments:
Test in all cases: microbe, parasite or virus in culture
Assay type in all cases: cell-based, Hepatitis C virus (HCV)
Conditions in all cases: Replicon Assay A
[1] = test system: HCV replicon 1AY93H
Method in brief: (§1)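 HCV replicon RNA levels were quantified by TaqMan RT-PCR after 3-day compound exposure (0.5% DMSO, 5% FBS). Cyclophilin RNA, co-amplified in the same reaction, served as endogenous control; Ct values were converted to RNA amounts using linear regression standard curves.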

[2] = test system: HCV replicon 1A
Method in brief: as §1

[3] = test system: HCV replicon 2B
Method in brief: as §1

[4] = read-out: 1A Y93H IC50, HCV replicon 1A Y93H
[5] = read-out: 2B IC50, HCV replicon 2B
[6] = read-out: 1A Y93H IC50, replicon 1AY93H
[7] = Hepatitis C virus, read-out: 1A Y93H IC50, HCV replicon 1A Y93H
[8] = Hepatitis C virus, HCV replicon 1A
[9] = Hepatitis C virus, read-out: 2B IC50, HCV replicon 2B

## COC(=O)N[C@H](C(=O)N1CCC[C@H]1c1ncc(-c2ccc3c(c2)OC(c2cc4sccc4s2)n2c-3cc3cc(-c4c[nH]c([C@@H]5C[C@H]6C[C@H]6N5C(=O)[C@@H](NC(=O)OC)C(C)C)n4)ccc32)[nH]1)C(C)C (single isomer, unassigned) [Compound 718]
[1]; [4]
  IC50: 0.11 nM
[2]; HCV replicon 1A
  IC50: 0.0024 nM
[3]; [5]
  IC50: 0.82 nM

## COC(=O)N[C@H](C(=O)N1CCC[C@H]1c1ncc(-c2cc(F)c3c(c2)OC(c2cc4c(s2)CCCO4)n2c-3cc3cc(-c4cnc([C@@H]5CCCN5C(=O)[C@@H](NC(=O)OC)C5CCOC(C)(C)C5)[nH]4)ccc32)[nH]1)C(C)C (single isomer, unassigned) [Compound 411]
[1]; [4]
  IC50: 0.78 nM
[2]; HCV replicon 1A
  IC50: 0.001 nM
[3]; [5]
  IC50: 0.2 nM

## COC(=O)N[C@H](C(=O)N1C[C@H](F)C[C@H]1c1nc(-c2ccc3c(c2)OC(c2ccc(C)s2)n2c-3cc3cc(-c4c[nH]c([C@@H]5C[C@H]6C[C@H]6N5C(=O)[C@@H](NC(=O)OC)C5CCOCC5)n4)ccc32)c[nH]1)C1CCOCC1 (single isomer, unassigned) [Compound 729]
[1]; [4]
  IC50: 0.22 nM
[2]; HCV replicon 1A
  IC50: 0.028 nM
[3]; [5]
  IC50: 0.034 nM

## CCc1ccc(C2Oc3cc(-c4cnc([C@@H]5CCCN5C(=O)C(NC(=O)OC)C5CCOC(C)(C)C5)[nH]4)cc(F)c3-c3cc4cc(-c5cnc([C@@H]6CCCN6C(=O)[C@@H](NC(=O)OC)C(C)C)[nH]5)ccc4n32)s1 (single isomer, unassigned) [Compound 159]
[1]; [6]
  IC50: 0.77 nM
[2]; replicon 1A
  IC50: 0.0025 nM
[3]; read-out: 2B IC50, replicon 2B
  IC50: 0.45 nM

## COC(=O)N[C@H](C(=O)N1CCC[C@H]1c1ncc(-c2cc(C)c3c(c2)OC(c2cc(C)c(C)s2)n2c-3cc3cc(-c4cnc([C@@H]5CCCN5C(=O)[C@@H](NC(=O)OC)C(C)C)[nH]4)ccc32)[nH]1)C(C)C (single isomer, unassigned) [Compound 15]
[1]; [6]
  IC50: 18.1 nM
[2]; Hepatitis C virus, replicon 1A
  IC50: 0.0029 nM
[3]; read-out: 2B IC50, replicon 2B
  IC50: 2.28 nM

## COC(=O)N[C@H](C(=O)N1CCC[C@H]1c1nc(-c2ccc3c(c2)OC(c2ccc(C)s2)n2c-3cc3cc(-c4c[nH]c([C@@H]5NCCN5C(=O)[C@@H](NC(=O)OC)C(C)C)n4)ccc32)c[nH]1)C(C)C (single isomer, unassigned) [Compound 701]
[1]; [4]
  IC50: 0.085 nM
[2]; HCV replicon 1A
  IC50: 0.003 nM
[3]; [5]
  IC50: 0.15 nM

## CCc1ccc(C2Oc3cc(-c4cnc([C@@H]5CCCN5C(=O)[C@@H](NC(=O)OC)C(C)C)[nH]4)cc(F)c3-c3cc4cc(-c5cnc([C@@H]6CCCN6C(=O)C(NC(=O)OC)C6CCOC(C)(C)C6)[nH]5)ccc4n32)s1 (single isomer, unassigned) [Compound 147]
[1]; [6]
  IC50: 0.43 nM
[2]; replicon 1A
  IC50: 0.0025 nM
[3]; read-out: 2B IC50, replicon 2B
  IC50: 0.62 nM

## COC(=O)NC(C(=O)N1CCC[C@H]1c1ncc(-c2cc(F)c3c(c2)OC(c2ccc(C4CC4)s2)n2c-3cc3cc(-c4cnc([C@@H]5CCCN5C(=O)[C@@H](NC(=O)OC)C(C)C)[nH]4)ccc32)[nH]1)C1CCOC(C)(C)C1 (single isomer, unassigned) [Compound 210]
[1]; [6]
  IC50: 0.52 nM
[2]; replicon 1A
  IC50: 0.0018 nM
[3]; read-out: 2B IC50, replicon 2B
  IC50: 0.33 nM

## COC(=O)N[C@H](C(=O)N1C[C@H](F)C[C@H]1c1ncc(-c2ccc3c(c2)OC(c2cc4ccccc4s2)n2c-3cc3cc(-c4cnc([C@@H]5C[C@@H](F)CN5C(=O)[C@@H](NC(=O)OC)C5CCOCC5)[nH]4)ccc32)[nH]1)C(C)C (mixture of isomers) [Compound 807]
[1]; [7]
  IC50: 0.025 nM
[2]; [8]
  IC50: 0.003 nM
[3]; [9]
  IC50: 2 nM

## COC(=O)NC(C(=O)N1CCC[C@H]1c1ncc(-c2ccc3c(c2)cc2n3C(c3cc4nccnc4s3)Oc3cc(-c4cnc([C@@H]5CCCN5C(=O)[C@@H](NC(=O)OC)C(C)C)[nH]4)cc(F)c3-2)[nH]1)C1C[C@@H](C)O[C@@H](C)C1 (single isomer, unassigned) [Compound 371]
[1]; [6]
  IC50: 0.553 nM
[2]; Hepatitis C virus, replicon 1A
  IC50: 0.0042 nM
[3]; read-out: 2B IC50, replicon 2B
  IC50: 0.0627 nM

## COC(=O)N[C@@H](Cc1ccccc1)C(=O)N1CCC[C@H]1c1ncc(-c2ccc3c(c2)OC(c2ccc(-c4ccc(NC(=O)CCCC[C@@H]5SC[C@@H]6NC(=O)N[C@@H]65)cc4)s2)n2c-3cc3cc(-c4cnc([C@@H]5CCCN5C(=O)[C@H](Cc5ccccc5)NC(=O)OC)[nH]4)ccc32)[nH]1 (single isomer, unassigned) [Compound 385]
[1]; [6]
  IC50: 3.11 nM
[2]; replicon 1A
  IC50: 0.109 nM
[3]; read-out: 2B IC50, replicon 2B
  IC50: 7.21 nM

## COC(=O)N[C@H](C(=O)N1CCC[C@H]1c1ncc(-c2cc(C)c3c(c2)OC(c2cc(C)c(C)s2)n2c-3cc3cc(-c4cnc([C@@H]5CCCN5C(=O)[C@@H](NC(=O)OC)C(C)C)[nH]4)ccc32)[nH]1)C(C)C (single isomer, unassigned) [Compound 16]
[1]; [6]
  IC50: 0.49 nM
[2]; replicon 1A
  IC50: 0.0024 nM
[3]; read-out: 2B IC50, replicon 2B
  IC50: 0.171 nM

## COC(=O)NC(C(=O)N1CCC[C@H]1c1ncc(-c2ccc3c(c2)cc2n3C(c3ccc(C4CC4)s3)Oc3cc(-c4cnc([C@@H]5CCCN5C(=O)[C@@H](NC(=O)OC)C(C)C)[nH]4)cc(F)c3-2)[nH]1)C1CCOC(C)(C)C1 (single isomer, unassigned) [Compound 222]
[1]; [6]
  IC50: 0.24 nM
[2]; replicon 1A
  IC50: 0.002 nM
[3]; read-out: 2B IC50, replicon 2B
  IC50: 0.17 nM

## COC(=O)NC(C(=O)N1CCC[C@H]1c1ncc(-c2ccc3c(c2)cc2n3C(c3cc(C)c(C)s3)Oc3cc(-c4cnc([C@@H]5CCCN5C(=O)[C@@H](NC(=O)OC)C5CCOCC5)[nH]4)cc(F)c3-2)[nH]1)C(C)(C)F (single isomer, unassigned) [Compound 131]
[1]; [6]
  IC50: 3.83 nM
[2]; replicon 1A
  IC50: 0.0078 nM
[3]; read-out: 2B IC50, replicon 2B
  IC50: 9.78 nM

## COC(=O)N[C@H](C(=O)N1C[C@H](F)C[C@H]1c1ncc(-c2ccc3c(c2)OC(c2ccc(C)s2)n2c-3cc3cc(-c4cnc([C@@H]5C[C@H]6C[C@H]6N5C(=O)[C@@H](NC(=O)OC)C(C)C)[nH]4)ccc32)[nH]1)C(C)C (single isomer, unassigned) [Compound 707]
[1]; [4]
  IC50: 0.034 nM
[2]; HCV replicon 1A
  IC50: 0.0064 nM
[3]; [5]
  IC50: 0.84 nM

## COC(=O)N[C@H](C(=O)N1CCC[C@H]1c1nc(-c2ccc3c(c2)OC(c2cc4sccc4s2)n2c-3cc3cc(-c4c[nH]c([C@@H]5C[C@H]6C[C@H]6N5C(=O)[C@@H](NC(=O)OC)C5CCOCC5)n4)ccc32)c[nH]1)C(C)C (mixture of isomers) [Compound 726]
[1]; [7]
  IC50: 0.047 nM
[2]; [8]
  IC50: 0.0063 nM
[3]; [9]
  IC50: 0.16 nM

## COC(=O)NC(C(=O)N1CCC[C@H]1c1ncc(-c2ccc3c(c2)cc2n3C(c3ccc(C4CC4)s3)Oc3cc(-c4cnc([C@@H]5CCCN5C(=O)[C@@H](NC(=O)OC)C(C)C)[nH]4)cc(F)c3-2)[nH]1)C1CN(C(=O)C2CC2)C1 (single isomer, unassigned) [Compound 269]
[1]; [6]
  IC50: 0.28 nM
[2]; replicon 1A
  IC50: 0.0026 nM
[3]; read-out: 2B IC50, replicon 2B
  IC50: 0.25 nM

## COC(=O)N[C@H](C(=O)N1CCC[C@H]1c1ncc(-c2ccc3c(c2)OC(c2ccc(C4CC4)s2)n2c-3c(C)c3cc(-c4cnc([C@@H]5CCCN5C(=O)[C@@H](NC(=O)OC)C(C)C)[nH]4)ccc32)[nH]1)C(C)C (single isomer, unassigned) [Compound 22]
[1]; [6]
  IC50: 1.38 nM
[2]; replicon 1A
  IC50: 0.002 nM
[3]; read-out: 2B IC50, replicon 2B
  IC50: 1.84 nM

## COC(=O)N[C@H](C(=O)N1CCC[C@H]1c1ncc(-c2cc(F)c3c(c2)OC(c2cc4c(s2)CCC(C)(C)O4)n2c-3cc3cc(-c4cnc([C@@H]5CCCN5C(=O)[C@@H](NC(=O)OC)C(C)C)[nH]4)ccc32)[nH]1)C(C)C (single isomer, unassigned) [Compound 398]
[1]; [6]
  IC50: 0.955 nM
[2]; replicon 1A
  IC50: 0.0015 nM
[3]; read-out: 2B IC50, replicon 2B
  IC50: 0.494 nM

## COCc1ccc(C2Oc3cc(-c4cnc([C@@H]5CCCN5C(=O)[C@@H](NC(=O)OC)C(C)C)[nH]4)cc(F)c3-c3cc4cc(-c5cnc([C@@H]6CCCN6C(=O)[C@@H](NC(=O)OC)[C@@H]6C[C@@H](C)O[C@@H](C)C6)[nH]5)ccc4n32)s1 (single isomer, unassigned) [Compound 533]
[1]; [4]
  IC50: 0.0913 nM
[2]; HCV replicon 1A
  IC50: 0.00373 nM
[3]; [5]
  IC50: 0.429 nM

## [2H]C(C)(C)C(NC(=O)OC)C(=O)N1CCC[C@H]1c1ncc(-c2cc(F)c3c(c2)OC(c2ccc(C4CC4)s2)n2c-3cc3cc(-c4cnc([C@@H]5CCCN5C(=O)[C@@H](NC(=O)OC)C(C)C)[nH]4)ccc32)[nH]1 (single isomer, unassigned) [Compound 31]
[1]; [6]
  IC50: 0.02 nM
[2]; replicon 1A
  IC50: 0.002 nM
[3]; read-out: 2B IC50, replicon 2B
  IC50: 0.083 nM

## COC(=O)N[C@H](C(=O)N1CCC[C@H]1c1ncc(-c2cc(F)c3c(c2)OC(c2cc4nccnc4s2)n2c-3cc3cc(-c4cnc([C@@H]5CCCN5C(=O)[C@@H](NC(=O)OC)C(C)C)[nH]4)ccc32)[nH]1)C(C)C (single isomer, unassigned) [Compound 47]
[1]; [6]
  IC50: 1.54 nM
[2]; Hepatitis C virus, replicon 1A
  IC50: 0.0016 nM
[3]; read-out: 2B IC50, replicon 2B
  IC50: 0.77 nM

## CCc1ccc(C2Oc3cc(-c4cnc([C@@H]5CCCN5C(=O)[C@@H](NC(=O)OC)C(C)C)[nH]4)cc(C)c3-c3cc4cc(-c5cnc([C@@H]6CCCN6C(=O)C(NC(=O)OC)C6C[C@@H](C)O[C@H](C)C6)[nH]5)ccc4n32)s1 (single isomer, unassigned) [Compound 546]
[1]; [4]
  IC50: 0.268 nM
[2]; HCV replicon 1A
  IC50: 0.0138 nM
[3]; [5]
  IC50: 0.0542 nM

## CCc1ccc(C2Oc3cc(-c4cnc([C@@H]5CCCN5C(=O)C(NC(=O)OC)C5CCOC(C)(C)C5)[nH]4)cc(F)c3-c3cc4cc(-c5cnc([C@@H]6CCCN6C(=O)[C@@H](NC(=O)OC)C(C)C)[nH]5)ccc4n32)s1 (single isomer, unassigned) [Compound 164]
[1]; [6]
  IC50: 0.13 nM
[2]; replicon 1A
  IC50: 0.0015 nM
[3]; read-out: 2B IC50, replicon 2B
  IC50: 0.53 nM

## COC(=O)NC(C(=O)N1CCC[C@H]1c1ncc(-c2cc(F)c3c(c2)OC(c2ccc(C4CC4)s2)n2c-3cc3cc(-c4cnc([C@@H]5CCCN5C(=O)[C@@H](NC(=O)OC)C5CCOCC5)[nH]4)ccc32)[nH]1)C(C)(C)F (single isomer, unassigned) [Compound 171]
[1]; [6]
  IC50: 1.4 nM
[2]; replicon 1A
  IC50: 0.0131 nM
[3]; read-out: 2B IC50, replicon 2B
  IC50: 4.06 nM
